Reference: ChEMBL document CHEMBL4507305, “Data for DCP probe TP-024” (2021)

How the values were obtained:
[1] = target: Tyrosine-protein kinase Mer (Homo sapiens) (UniProt Q12866); settings: Compound concentration 1000.0 nM
[2] = target: Serine/threonine-protein kinase 26 (Homo sapiens) (UniProt Q9P289); settings: Compound concentration 1000.0 nM
[3] = target: RAF proto-oncogene serine/threonine-protein kinase (Homo sapiens) (UniProt P04049); settings: Compound concentration 1000.0 nM
[4] = target: Dual specificity protein kinase CLK1 (Homo sapiens) (UniProt P49759); settings: Compound concentration 1000.0 nM
[5] = target: Serine/threonine-protein kinase MRCK gamma (Homo sapiens) (UniProt Q6DT37); settings: Compound concentration 1000.0 nM
[6] = target: Serine/threonine-protein kinase LATS1 (Homo sapiens) (UniProt O95835); settings: Compound concentration 1000.0 nM
[7] = target: Wee1-like protein kinase 2 (Homo sapiens) (UniProt P0C1S8); settings: Compound concentration 1000.0 nM
[8] = target: Serine/threonine-protein kinase DCLK3 (Homo sapiens) (UniProt Q9C098); settings: Compound concentration 1000.0 nM
[9] = tested on: Epidermal growth factor receptor (Homo sapiens), P00533 [T790M]; settings: Compound concentration 1000.0 nM
[10] = target: Non-receptor tyrosine-protein kinase TYK2 (Homo sapiens) (UniProt P29597); settings: Compound concentration 1000.0 nM
Non-receptor tyrosine-protein kinase TYK2 (Homo sapiens), sequence (P29597 whole entry): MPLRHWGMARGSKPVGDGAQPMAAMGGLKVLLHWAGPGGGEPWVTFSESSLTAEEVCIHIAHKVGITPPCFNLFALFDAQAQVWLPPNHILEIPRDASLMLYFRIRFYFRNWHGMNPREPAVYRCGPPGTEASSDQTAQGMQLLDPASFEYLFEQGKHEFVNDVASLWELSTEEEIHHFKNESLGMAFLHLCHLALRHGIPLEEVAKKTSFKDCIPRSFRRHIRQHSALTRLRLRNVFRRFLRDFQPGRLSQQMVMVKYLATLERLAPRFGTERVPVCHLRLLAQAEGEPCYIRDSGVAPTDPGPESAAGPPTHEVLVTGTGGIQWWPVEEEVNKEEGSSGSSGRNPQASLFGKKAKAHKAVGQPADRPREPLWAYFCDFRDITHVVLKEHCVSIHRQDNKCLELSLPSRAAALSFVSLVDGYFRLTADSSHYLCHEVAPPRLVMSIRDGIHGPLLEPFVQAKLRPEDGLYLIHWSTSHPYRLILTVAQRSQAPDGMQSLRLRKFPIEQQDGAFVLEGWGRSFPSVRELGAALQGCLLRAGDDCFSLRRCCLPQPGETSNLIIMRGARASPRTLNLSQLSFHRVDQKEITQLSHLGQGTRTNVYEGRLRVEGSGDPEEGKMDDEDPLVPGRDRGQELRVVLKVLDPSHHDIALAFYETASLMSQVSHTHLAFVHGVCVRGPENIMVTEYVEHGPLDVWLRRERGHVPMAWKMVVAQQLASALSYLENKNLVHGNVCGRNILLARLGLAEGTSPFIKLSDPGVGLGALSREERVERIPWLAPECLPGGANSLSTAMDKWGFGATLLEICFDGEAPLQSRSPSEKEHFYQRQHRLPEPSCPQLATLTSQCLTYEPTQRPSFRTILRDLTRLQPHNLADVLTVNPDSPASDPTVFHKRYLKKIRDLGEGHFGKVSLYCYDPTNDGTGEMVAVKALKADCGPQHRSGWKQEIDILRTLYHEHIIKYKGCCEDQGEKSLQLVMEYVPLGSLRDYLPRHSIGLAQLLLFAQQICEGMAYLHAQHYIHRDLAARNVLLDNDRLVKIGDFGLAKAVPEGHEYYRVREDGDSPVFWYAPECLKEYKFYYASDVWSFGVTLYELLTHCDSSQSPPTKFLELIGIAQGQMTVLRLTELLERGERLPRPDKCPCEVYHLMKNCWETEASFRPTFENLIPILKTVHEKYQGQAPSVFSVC

[11] = target: Mitogen-activated protein kinase 12 (Homo sapiens) (UniProt P53778); settings: Compound concentration 1000.0 nM
[12] = target: Serine/threonine-protein kinase TAO1 (Homo sapiens) (UniProt Q7L7X3); settings: Compound concentration 1000.0 nM
[13] = target: Dual specificity mitogen-activated protein kinase kinase 5 (Homo sapiens) (UniProt Q13163); settings: Compound concentration 1000.0 nM
[14] = target: Ephrin type-B receptor 6 (Homo sapiens) (UniProt O15197); settings: Compound concentration 1000.0 nM
[15] = target: Fibroblast growth factor receptor 1 (Homo sapiens) (UniProt P11362); settings: Compound concentration 1000.0 nM
[16] = target: Serine/threonine-protein kinase Nek6 (Homo sapiens) (UniProt Q9HC98); settings: Compound concentration 1000.0 nM
[17] = target: Serine/threonine-protein kinase PLK4 (Homo sapiens) (UniProt O00444); settings: Compound concentration 1000.0 nM
[18] = target: Fibroblast growth factor receptor 3 (Homo sapiens) (UniProt P22607); settings: Compound concentration 1000.0 nM
[19] = tested on: Fibroblast growth factor receptor 3 (Homo sapiens), P22607 [G697C]; settings: Compound concentration 1000.0 nM
[20] = target: Serine/threonine-protein kinase mTOR (Homo sapiens) (UniProt P42345); settings: Compound concentration 1000.0 nM
[21] = target: Rho-associated protein kinase 2 (Homo sapiens) (UniProt O75116); settings: Compound concentration 1000.0 nM
[22] = target: SRSF protein kinase 3 (Homo sapiens) (UniProt Q9UPE1); settings: Compound concentration 1000.0 nM
[23] = target: Cyclin-dependent kinase 17 (Homo sapiens) (UniProt Q00537); settings: Compound concentration 1000.0 nM
[24] = target: NUAK family SNF1-like kinase 2 (Homo sapiens) (UniProt Q9H093); settings: Compound concentration 1000.0 nM
[25] = target: Calcium/calmodulin-dependent protein kinase kinase 2 (Homo sapiens) (UniProt Q96RR4); settings: Compound concentration 1000.0 nM
Calcium/calmodulin-dependent protein kinase kinase 2 (Homo sapiens), sequence (Q96RR4 2-588 limits assumed): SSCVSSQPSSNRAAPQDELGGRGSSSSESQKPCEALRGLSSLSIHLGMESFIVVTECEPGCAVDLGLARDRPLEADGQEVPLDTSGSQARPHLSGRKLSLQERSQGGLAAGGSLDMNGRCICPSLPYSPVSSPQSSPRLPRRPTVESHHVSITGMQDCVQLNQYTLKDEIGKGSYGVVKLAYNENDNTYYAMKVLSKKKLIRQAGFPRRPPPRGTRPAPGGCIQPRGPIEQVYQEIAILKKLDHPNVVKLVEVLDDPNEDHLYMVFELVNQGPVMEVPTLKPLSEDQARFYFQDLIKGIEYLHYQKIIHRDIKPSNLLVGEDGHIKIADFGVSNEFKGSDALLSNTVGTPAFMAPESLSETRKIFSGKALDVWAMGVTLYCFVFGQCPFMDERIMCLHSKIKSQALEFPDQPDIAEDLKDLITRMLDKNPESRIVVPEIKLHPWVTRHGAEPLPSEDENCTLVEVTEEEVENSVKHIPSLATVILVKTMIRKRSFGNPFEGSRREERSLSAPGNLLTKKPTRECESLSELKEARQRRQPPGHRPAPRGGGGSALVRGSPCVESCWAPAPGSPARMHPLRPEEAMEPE

[26] = target: Epithelial discoidin domain-containing receptor 1 (Homo sapiens) (UniProt Q08345); settings: Compound concentration 1000.0 nM
[27] = target: Dual specificity protein kinase TTK (Homo sapiens) (UniProt P33981); settings: Compound concentration 1000.0 nM
[28] = target: Muscarinic acetylcholine receptor M4 (Homo sapiens) (UniProt P08173); settings: Compound concentration 10.0 uM
[29] = target: Mitogen-activated protein kinase kinase kinase kinase 2 (Homo sapiens) (UniProt Q12851); settings: Compound concentration 1000.0 nM
[30] = target: Ribosomal protein S6 kinase alpha-4 (Homo sapiens) (UniProt O75676); settings: Compound concentration 1000.0 nM
[31] = target: Tyrosine-protein kinase receptor Tie-1 (Homo sapiens) (UniProt P35590); settings: Compound concentration 1000.0 nM
Tyrosine-protein kinase receptor Tie-1 (Homo sapiens), sequence (P35590 whole entry): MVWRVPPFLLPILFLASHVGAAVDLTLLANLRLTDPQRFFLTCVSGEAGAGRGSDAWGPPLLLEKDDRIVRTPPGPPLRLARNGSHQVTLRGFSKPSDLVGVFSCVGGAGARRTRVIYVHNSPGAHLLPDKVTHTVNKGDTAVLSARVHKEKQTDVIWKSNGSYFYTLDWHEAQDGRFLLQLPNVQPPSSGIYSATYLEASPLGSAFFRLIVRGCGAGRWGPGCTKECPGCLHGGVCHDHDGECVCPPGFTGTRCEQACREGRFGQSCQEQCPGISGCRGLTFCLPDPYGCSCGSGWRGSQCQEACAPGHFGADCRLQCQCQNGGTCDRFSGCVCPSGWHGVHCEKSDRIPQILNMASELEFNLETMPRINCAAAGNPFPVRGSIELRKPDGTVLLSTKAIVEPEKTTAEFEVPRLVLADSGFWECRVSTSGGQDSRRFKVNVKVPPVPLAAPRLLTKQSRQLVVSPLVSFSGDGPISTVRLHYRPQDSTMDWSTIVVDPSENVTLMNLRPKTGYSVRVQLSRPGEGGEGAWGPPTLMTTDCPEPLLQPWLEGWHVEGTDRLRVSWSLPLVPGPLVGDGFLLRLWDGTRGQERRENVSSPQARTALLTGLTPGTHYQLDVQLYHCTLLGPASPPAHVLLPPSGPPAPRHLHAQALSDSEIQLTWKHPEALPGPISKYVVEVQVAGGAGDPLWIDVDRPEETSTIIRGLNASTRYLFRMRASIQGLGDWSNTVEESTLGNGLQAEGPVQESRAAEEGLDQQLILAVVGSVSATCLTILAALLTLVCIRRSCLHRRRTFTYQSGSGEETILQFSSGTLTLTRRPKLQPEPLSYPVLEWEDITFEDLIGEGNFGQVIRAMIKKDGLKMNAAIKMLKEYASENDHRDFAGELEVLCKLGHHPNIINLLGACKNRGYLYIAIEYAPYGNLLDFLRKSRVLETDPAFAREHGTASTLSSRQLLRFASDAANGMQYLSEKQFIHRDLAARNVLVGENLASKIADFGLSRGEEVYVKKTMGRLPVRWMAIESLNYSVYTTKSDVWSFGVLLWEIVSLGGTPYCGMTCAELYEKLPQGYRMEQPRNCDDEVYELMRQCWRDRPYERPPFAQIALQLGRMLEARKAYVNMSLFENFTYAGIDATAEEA

[32] = target: Tyrosine-protein kinase ABL1 (Homo sapiens) (UniProt P00519); settings: Compound concentration 1000.0 nM
[33] = target: Transient receptor potential cation channel subfamily M member 6 (Homo sapiens) (UniProt Q9BX84); settings: Compound concentration 1000.0 nM
[34] = target: Mitogen-activated protein kinase 14 (Homo sapiens) (UniProt Q16539); settings: Compound concentration 1000.0 nM
[35] = target: Receptor-type tyrosine-protein kinase FLT3 (Homo sapiens) (UniProt P36888); settings: Compound concentration 1000.0 nM
[36] = tested on: Epidermal growth factor receptor (Homo sapiens), P00533 [L858R,T790M]; settings: Compound concentration 1000.0 nM
[37] = target: Serine/threonine-protein kinase OSR1 (Homo sapiens) (UniProt O95747); settings: Compound concentration 1000.0 nM
Serine/threonine-protein kinase OSR1 (Homo sapiens), sequence (O95747 2-527 limits assumed): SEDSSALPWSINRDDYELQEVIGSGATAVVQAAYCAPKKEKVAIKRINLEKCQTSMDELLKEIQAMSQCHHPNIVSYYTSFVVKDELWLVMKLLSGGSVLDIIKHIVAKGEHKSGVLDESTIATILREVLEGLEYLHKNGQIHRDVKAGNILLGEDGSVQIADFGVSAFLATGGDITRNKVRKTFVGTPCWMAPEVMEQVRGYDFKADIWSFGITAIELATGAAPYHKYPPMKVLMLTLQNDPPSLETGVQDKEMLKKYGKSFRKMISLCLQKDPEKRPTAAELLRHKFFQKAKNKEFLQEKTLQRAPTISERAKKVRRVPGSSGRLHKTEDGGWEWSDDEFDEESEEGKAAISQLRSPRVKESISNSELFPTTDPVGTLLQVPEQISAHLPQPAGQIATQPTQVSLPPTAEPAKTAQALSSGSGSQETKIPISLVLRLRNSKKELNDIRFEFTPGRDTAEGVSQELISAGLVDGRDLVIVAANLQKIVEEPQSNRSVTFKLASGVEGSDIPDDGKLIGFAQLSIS

[38] = target: Serine/threonine-protein kinase 33 (Homo sapiens) (UniProt Q9BYT3); settings: Compound concentration 1000.0 nM
[39] = target: Insulin receptor-related protein (Homo sapiens) (UniProt P14616); settings: Compound concentration 1000.0 nM
[40] = target: Serine/threonine-protein kinase Nek1 (Homo sapiens) (UniProt Q96PY6); settings: Compound concentration 1000.0 nM
[41] = target: Serine/threonine-protein kinase ULK1 (Homo sapiens) (UniProt O75385); settings: Compound concentration 1000.0 nM
[42] = target: Mitogen-activated protein kinase kinase kinase 11 (Homo sapiens) (UniProt Q16584); settings: Compound concentration 1000.0 nM
Mitogen-activated protein kinase kinase kinase 11 (Homo sapiens), sequence (Q16584 whole entry, looked up, the tested form may be a part): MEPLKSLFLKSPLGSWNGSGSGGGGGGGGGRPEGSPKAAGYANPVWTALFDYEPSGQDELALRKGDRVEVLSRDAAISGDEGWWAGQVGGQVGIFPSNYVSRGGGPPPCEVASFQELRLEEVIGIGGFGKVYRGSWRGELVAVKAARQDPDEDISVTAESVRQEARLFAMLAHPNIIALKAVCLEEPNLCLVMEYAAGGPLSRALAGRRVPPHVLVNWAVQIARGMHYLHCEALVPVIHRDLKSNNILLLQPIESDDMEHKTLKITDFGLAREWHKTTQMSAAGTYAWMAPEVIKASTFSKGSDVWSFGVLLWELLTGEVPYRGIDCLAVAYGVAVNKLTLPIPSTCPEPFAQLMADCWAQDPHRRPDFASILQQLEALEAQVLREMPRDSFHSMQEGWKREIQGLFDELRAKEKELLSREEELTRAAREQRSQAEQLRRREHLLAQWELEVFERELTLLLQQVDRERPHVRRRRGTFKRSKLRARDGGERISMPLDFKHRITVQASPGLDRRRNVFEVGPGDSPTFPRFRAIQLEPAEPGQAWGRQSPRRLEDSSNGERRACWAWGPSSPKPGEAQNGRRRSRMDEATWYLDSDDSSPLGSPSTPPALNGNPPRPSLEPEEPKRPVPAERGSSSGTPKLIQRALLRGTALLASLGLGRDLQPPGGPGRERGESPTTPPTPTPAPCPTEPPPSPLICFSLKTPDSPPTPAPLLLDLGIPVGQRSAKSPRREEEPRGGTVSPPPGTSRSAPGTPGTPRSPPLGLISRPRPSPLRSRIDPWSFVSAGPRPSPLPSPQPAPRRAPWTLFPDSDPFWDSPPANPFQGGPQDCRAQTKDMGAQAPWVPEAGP

[43] = target: Discoidin domain-containing receptor 2 (Homo sapiens) (UniProt Q16832); settings: Compound concentration 1000.0 nM
[44] = target: 5'-AMP-activated protein kinase catalytic subunit alpha-1 (Homo sapiens) (UniProt Q13131); settings: Compound concentration 1000.0 nM
[45] = target: Calcium/calmodulin-dependent protein kinase type II subunit beta (Homo sapiens) (UniProt Q13554); settings: Compound concentration 1000.0 nM

RAF proto-oncogene serine/threonine-protein kinase (Homo sapiens), sequence (P04049 whole entry): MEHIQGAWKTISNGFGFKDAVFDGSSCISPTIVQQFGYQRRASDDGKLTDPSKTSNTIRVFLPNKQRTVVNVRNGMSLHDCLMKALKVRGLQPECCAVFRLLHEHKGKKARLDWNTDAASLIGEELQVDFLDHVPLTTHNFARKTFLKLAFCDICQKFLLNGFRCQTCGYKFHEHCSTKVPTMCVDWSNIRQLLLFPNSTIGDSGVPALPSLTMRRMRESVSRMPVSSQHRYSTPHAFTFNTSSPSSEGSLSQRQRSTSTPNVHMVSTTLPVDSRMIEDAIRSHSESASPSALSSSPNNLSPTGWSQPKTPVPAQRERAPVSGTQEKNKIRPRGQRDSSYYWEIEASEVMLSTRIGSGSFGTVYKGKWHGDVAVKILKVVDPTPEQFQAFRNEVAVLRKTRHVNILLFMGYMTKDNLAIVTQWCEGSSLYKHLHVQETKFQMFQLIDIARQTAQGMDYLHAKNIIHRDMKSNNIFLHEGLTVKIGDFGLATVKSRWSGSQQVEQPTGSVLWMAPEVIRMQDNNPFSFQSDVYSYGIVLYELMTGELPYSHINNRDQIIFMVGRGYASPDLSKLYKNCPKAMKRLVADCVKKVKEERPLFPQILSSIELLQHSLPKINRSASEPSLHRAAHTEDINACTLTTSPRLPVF

Compound: Cc1cc(-n2nc(Cc3cc(F)cc(C(F)(F)F)c3)nc2C)ccc1C(N)=O [TP-024]
- residual activity [1]: 100%
- residual activity [2]: 100%
- residual activity [3]: 87%
- residual activity [4]: 86%
- residual activity [5]: 100%
- residual activity [6]: 100%
- residual activity [7]: 100%
- residual activity [8]: 94%
- residual activity [9]: 94%
- residual activity [10]: 100%
- residual activity [11]: 100%
- residual activity [12]: 91%
- residual activity [13]: 100%
- residual activity [14]: 100%
- residual activity [15]: 100%
- residual activity [16]: 95%
- residual activity [17]: 84%
- residual activity [18]: 100%
- residual activity [19]: 100%
- residual activity [20]: 78%
- residual activity [21]: 96%
- residual activity [22]: 100%
- residual activity [23]: 77%
- residual activity [24]: 100%
- residual activity [25]: 100%
- residual activity [26]: 86%
- residual activity [27]: 90%
- inhibition [28]: 6.9%
- residual activity [29]: 100%
- residual activity [30]: 95%
- residual activity [31]: 100%
- residual activity [32]: 97%
- residual activity [33]: 100%
- residual activity [34]: 95%
- residual activity [35]: 100%
- residual activity [36]: 90%
- residual activity [37]: 91%
- residual activity [38]: 100%
- residual activity [39]: 100%
- residual activity [40]: 54%
- residual activity [41]: 100%
- residual activity [42]: 84%
- residual activity [43]: 100%
- residual activity [44]: 100%
- residual activity [45]: 100%

Compound: Cc1nc(Cc2cccc(C(F)(F)F)c2)sc1-c1ccc(C(N)=O)nc1 [TP-024n]
- residual activity [1]: 98%
- residual activity [2]: 83%
- residual activity [3]: 70%
- residual activity [4]: 83%
- residual activity [5]: 100%
- residual activity [6]: 100%
- residual activity [7]: 100%
- residual activity [8]: 100%
- residual activity [9]: 98%
- residual activity [10]: 100%
- residual activity [11]: 100%
- residual activity [12]: 81%
- residual activity [13]: 85%
- residual activity [14]: 100%
- residual activity [15]: 83%
- residual activity [16]: 90%
- residual activity [17]: 90%
- residual activity [18]: 100%
- residual activity [19]: 76%
- residual activity [20]: 87%
- residual activity [21]: 59%
- residual activity [22]: 100%
- residual activity [23]: 83%
- residual activity [24]: 100%
- residual activity [25]: 91%
- residual activity [26]: 100%
- residual activity [27]: 82%
- inhibition [28]: 2.94%
- residual activity [29]: 100%
- residual activity [30]: 82%
- residual activity [31]: 28%
- residual activity [32]: 95%
- residual activity [33]: 88%
- residual activity [34]: 100%
- residual activity [35]: 87%
- residual activity [36]: 87%
- residual activity [37]: 100%
- residual activity [38]: 91%
- residual activity [39]: 100%
- residual activity [40]: 41%
- residual activity [41]: 100%
- residual activity [42]: 100%
- residual activity [43]: 100%
- residual activity [44]: 100%
- residual activity [45]: 100%
